Reference: patent US20160220542A1, “SYNERGISTIC ACTIVITY OF MODULATORS OF THE NO METABOLISM AND OF NADPH OXIDASE IN THE SENSITISATION OF TUMOR CELLS” (Universitaetsklinikum Freiburg, priority 2010, published 2016)

Columns and labels:
[1] = test system: human lymphoma line Gumbus; assay: catalase deactivation of tumour cells (hydrogen peroxide induced apoptosis); format: cell-based; details: 1.5 hours
Method: 25 000 cells of the human lymphoma line Gumbus/100 μl medium had the stated concentrations of hydrogen peroxide added without 3-AT or in the presence of 50 mM or 100 mM of the catalase inhibitor 3-AT. After 1.5 hours in duplicate preparations the apoptosis induction was determined.
FIG. 14B: Gumbus cells were pre-incubated without Taxol (control) or with 10 μg/ml Taxol for 30 minutes at 37° C. Parallel preparations were either free of further substances or contained 2 mM histidine (singlet oxygen-receptor), 25 μM FeTPPS (catalytically-acting peroxynitrite destroyer) or 25 U/ml catalase (CAT). Following pre-incubation the cells were separated by centrifugation, absorbed in fresh medium and the stated concentrations of hydrogen peroxide added. After 1.5 hours the assessment was performed in the duplicate preparations.

[2] = test system: transformed rat fibroblast line 208Fsrc3; assay: autocrine, ROS mediated apoptosis induction in transformed cells; format: cell-based; details: 22 hours; for effect on autocrine apoptosis: 50 mM taurine, 150 μM ABH or 10 mM mannitol; for effect of higher SOD concentrations on apoptosis: concentrations above maximum inhibition
Method: 12 500 cells of the transformed rat fibroblast line 208Fsrc3 per 100 μl complete medium were sown in 96 hole plates. Following growth 20 ng/ml TGF-beta-1 were added to all preparations. To the preparations the stated concentrations of Cu SOD (from bovine erythroctes) or Mn SOD (from E. coli) were added. Some of the preparations received 50 mM of the HOCl receptor taurine (TAU), 150 μM of the peroxidase inhibitor 4-aminobenzoylhydrazide (ABH) or 10 mM of the hydroxyl radical scavenger mannitol. After 22 hours the percentages of apoptotic cells were determined on the basis of the conventional apoptosis characteristics of nuclear condensation, nuclear fragmentation or membrane blebbing in each case in duplicate preparations.

NO dioxygenase (NOD) = assay: inhibition of NO dioxygenase (DEA NONOate-dependent apoptosis in MKN-45 cells); format: cell-based; details: for effect on available NO concentration (NOD inhibition): as Example 10, 3 hours; for available NO concentration through inhibition of the NOD: broad concentration range
Method: This test is based on the fact that NOD also effectively converts exogenously added NO into nitrate and thus in suitable cell systems (such as for example the tumour cell line MKN-45) can prevent apoptosis induction by NO/peroxynitrite.
This rules out a test substance having an influence over the reaction as a whole, through modulation of the catalase activity. The hydrogen peroxide released following the catalase inhibition is fully decomposed by 20-25 μM of the catalase mimetic EUK-134 (similar to the abovementioned EUK-8, but with a lower peroxidise activity). In this way both the HOCl pathway and the consumption of NO by hydrogen peroxide are prevented. For the modulation of the available NO concentration with the known mechanisms now only the NOD remains. If this is inhibited then the addition of exogenous NO leads to an increased apoptosis induction.
12 500 MKN-45 cells in 100 μl Medium had 200 mM 3-AT, 2.4 mM NAME, 25 μM EUK-134 and the stated concentrations of epothilone B (“EPO”) added. […] Then the stated concentrations of the NO donor DEANONOate were added and the preparations were incubated for a further 2 hours at 37° C. before the percentages of apoptotic cells were determined.
The experiment was carried out in the same way as described in FIG. 10, but with the difference that the stated concentrations of DADS (FIG. 11A) or Taxol (FIG. 11B) were used and the determination of the apoptotic cells took place after 3 hours.

MKN-45 cells = assay: apoptosis induction in MKN-45 tumour cells, single substances and combinations; format: cell-based
Method: 12 500 MKN-45 cells in 100 μl medium were prepared with the stated concentrations of arginine in combination with 0.2 or 20 μM resveratrol. Control preparations received arginine at between 0 and 5 mM, but remained free of resveratrol. After 4.5 hours the percentages of apoptotic cells were determined (duplicate preparations).
In addition, 25 μM caspase-8 inhibitor were added or not added to the stated combinations of arginine and resveratrol. Assessment after 4.5 hours.
12 500 MKN-45 cells in 100 μl had 10 μg/ml Taxol or 0.013 μg/ml Taxol in combination or not with the stated concentrations of resveratrol added. […] After 4.5 hours in duplicate preparations the percentages of apoptotic cells were determined.
12 500 MKN-45 cells in 100 μl medium received either no addition of substances, 25 ng/ml epothilone B, 0.75 ng/ml epothilone B, 25 μg/ml resveratrol or the combination of 0.75 ng/ml epothilone B with 25 μg/ml resveratrol. After 3 hours the percentages of apoptotic cells were determined in duplicate preparations.
12 500 MKN 45 cells in 100 μl medium received none of the stated additives. After 3 hours an assessment was made of the duplicate preparations.

[3] = test system: extracellular superoxide anion production of MKN-45 cells; assay: extracellular superoxide anion production of MKN-45 cells (Cu SOD bell curve shift); format: cell-based; details: for stimulation of the NADPH oxidase: higher concentration range of the substances
[4] = test system: transformed 208Fsrc3 cells; assay: apoptosis induction mediated by added myeloperoxidase (MPO); format: cell-based, rat; details: 200 mU/ml MPO; 100 U/ml catalase, 50 mM taurine, 10 mM mannitol; 5 hours
Method: Instead of the autocrine apoptosis induction illustrated in Example 1, in the experiment illustrated in Example 2 the HOCl signalling pathway is accelerated by addition of exogenous MPO (FIG. 2A) or the NO/peroxynitrite pathway is induced by addition of the rapidly decomposing NO donor DEA NONOate.
12 500 transformed 208Fsrc3 cells per preparation (96 hole plate, 100 μl medium) were sown. Under A these also received 200 mU/ml MPO, and under B additionally 1.5 mM DEA NONOate. Control preparations remained free of MPO or DEA NONOate. In Part A additionally 100 U/ml catalase (KAT), 50 mM taurine (TAU), and 10 mM mannitol (MANN) were used.
In FIG. 2B the addition took place of 25 μM of the catalytically effective peroxynitrite destroyer FeTPPS. The duplicate preparations under A were assessed after 5 hours, and those under B after just 3 hours. […] The inhibitors confirm the involvement of hydrogen peroxide (inhibition by catalase), HOCl (inhibition by taurine), and hydroxyl radicals (inhibition by mannitol). Again a bell curve was obtained, the right part of which is dependent upon the availability of HOCl and the effect of hydroxyl radicals.

208Fsrc3 cells = assay: EUK-8-mediated apoptosis induction, Cu SOD bell curve; format: cell-based, rat
Method: 12 500 208Fsrc3 cells in 100 μl (96 hole plate) had increasing concentrations of Cu SOD added in the presence of 120 μM EUK-8. After 5 hours the percentage of apoptotic cells was determined in duplicate preparations.
The indicated cell counts (208Fsrc3) in 100 μl medium had increasing concentrations of Cu SOD added in the presence of 120 μM EUK-8. After 1.5 hours in duplicate preparations the percentages of apoptotic cells were determined. There is a direct dependency between the SOD concentration at the vertex and the number of cells per preparation. Since this in turn determines the total concentration of available superoxide anions, there is a correlation between SOD concentration at the vertex and the superoxide anions concentration achieved.

Nc1nc[nH]n1 [3-AT, 3-aminotriazole]
effect on catalase protection against exogenous hydrogen peroxide ([1]; 50 mM or 100 mM 3-AT): can be reversed

NNC(=O)c1ccc(N)cc1 [ABH, 4-aminobenzoylhydrazide]
effect on autocrine apoptosis [2]: completely inhibited

C=CCSSCC=C [DADS, diallyl disulfide]
effect on available NO concentration (NOD inhibition) (NO dioxygenase (NOD)): led to an increase in the available NO concentration

CC(=O)O[C@H]1C(=O)[C@@]2(C)[C@H]([C@H](OC(=O)c3ccccc3)[C@]3(O)C[C@H](OC(=O)[C@H](O)[C@@H](NC(=O)c4ccccc4)c4ccccc4)C(C)=C1C3(C)C)[C@]1(OC(C)=O)CO[C@@H]1C[C@@H]2O [Taxol]
apoptosis induction (MKN-45 cells; 0.013 μg/ml Taxol alone, 4.5 hours): induced no apoptosis
apoptosis induction (MKN-45 cells; 10 μg/ml Taxol alone, 4.5 hours): clear apoptosis induction
effect on available NO concentration (NOD inhibition) (NO dioxygenase (NOD)): led to an increase in the available NO concentration
available NO concentration through inhibition of the NOD (NO dioxygenase (NOD)): increase in the available NO concentration
effect on catalase protection against exogenous hydrogen peroxide ([1]; pre-incubation with 10 μg/ml Taxol for 30 minutes, washed): has the same effect as 3-AT
stimulation of the NADPH oxidase compared with epothilone B ([3]; data not shown): behaves in the same way
stimulation of the NADPH oxidase [3]: simultaneous stimulation of the NADPH oxidase

C=CCN=C=S [allyl isothiocyanate]
available NO concentration through inhibition of the NOD (NO dioxygenase (NOD)): increase in the available NO concentration
stimulation of the NADPH oxidase [3]: simultaneous stimulation of the NADPH oxidase

N=C(N)NCCC[C@H](N)C(=O)O [arginine]
apoptosis induction by arginine alone (MKN-45 cells): concentration-dependent apoptosis induction
dependence of apoptosis on caspase-8 / FAS (MKN-45 cells): strictly dependent upon the involvement of a caspase-8-mediated step

Oc1cc(O)c2cc(O)c(-c3ccc(O)c(O)c3)[o+]c2c1.[Cl-] [cyanidin chloride]
dependence of the effect on caspase-8 (MKN-45 cells; high cyanidin chloride concentration, 3 hours): dependent upon caspase-8

C/C(=C\c1csc(C)n1)[C@@H]1C[C@@H]2O[C@]2(C)CCC[C@H](C)[C@H](O)[C@@H](C)C(=O)C(C)(C)[C@@H](O)CC(=O)O1 [epothilone B]
apoptosis induction (MKN-45 cells; 0.75 ng/ml epothilone B alone, 3 hours): neither the low epothilone B concentration nor resveratrol on its own was able to induce apoptosis
effect on DEA NONOate-dependent apoptosis (NOD inhibition) (NO dioxygenase (NOD); all concentrations used, 200 mM 3-AT, 2.4 mM NAME, 25 μM EUK-134, 2 hours): led to an increase in the DEA-NONOATE-dependent apoptosis
available NO concentration through inhibition of the NOD (NO dioxygenase (NOD)): increase in the available NO concentration
effect on superoxide anion production [3]: did not demonstrate any effect
stimulation of the NADPH oxidase [3]: simultaneous stimulation of the NADPH oxidase
increase in superoxide anion production ([3]; highest concentration of epothilone B, 150 mM 3-AT, 8 hours): fourfold

OC[C@@H](O)[C@@H](O)[C@H](O)[C@H](O)CO [mannitol]
effect on autocrine apoptosis [2]: completely inhibited
effect on MPO-mediated apoptosis (HOCl pathway) [4]: inhibition

Oc1ccc(C=Cc2cc(O)cc(O)c2)cc1 [resveratrol]
apoptosis induction (MKN-45 cells; 25 μg/ml resveratrol alone, 3 hours): neither the low epothilone B concentration nor resveratrol on its own was able to induce apoptosis
apoptosis induction by resveratrol alone (MKN-45 cells; 0.2 or 20 μM resveratrol, 4.5 hours): little more than background apoptosis
apoptosis induction (MKN-45 cells; each stated concentration of resveratrol alone, 4.5 hours): induced no apoptosis
inhibitory capability of the NOD (NO dioxygenase (NOD); data not shown): no indications of an inhibitory capability of the NOD
increase in superoxide anion production ([3]; 4 or 20 μg/ml resveratrol, 120 μM EUK-8, 4 hours): 8-16 times

NCCS(=O)(=O)O [taurine]
effect on autocrine apoptosis [2]: completely inhibited
effect on MPO-mediated apoptosis (HOCl pathway) [4]: inhibition

Cu SOD: Cu-containing superoxide dismutase from bovine erythroctes
effect of Cu SOD on EUK-8-mediated apoptosis (208Fsrc3 cells; 120 μM EUK-8, 12 500 cells, 5 hours): leads to a bell curve
SOD concentration at the vertex (maximum inhibition) (208Fsrc3 cells; 6 250 cells, 120 μM EUK-8, 1.5 hours): 0.57 U/ml
effect of higher SOD concentrations on apoptosis [2]: renewed increase in the apoptosis

Photofrin
stimulation of the NADPH oxidase by singlet oxygen ([3]; 1 μg/ml Photofrin exposed to light, 100 mM 3-AT, 5 hours): significant stimulation of the NADPH oxidase

catalase
effect on MPO-mediated apoptosis (HOCl pathway) [4]: inhibition

B1: MPO: exogenous myeloperoxidase (protein, UniProt P05164 165-745, looked up)
Myeloperoxidase: VTCPEQDKYRTITGMCNNRRSPTLGASNRAFVRWLPAEYEDGFSLPYGWTPGVKRNGFPVALARAVSNEIVRFPTDQLTPDQERSLMFMQWGQLLDHDLDFTPEPAARASFVTGVNCETSCVQQPPCFPLKIPPNDPRIKNQADCIPFFRSCPACPGSNITIRNQINALTSFVDASMVYGSEEPLARNLRNMSNQLGLLAVNQRFQDNGRALLPFDNLHDDPCLLTNRSARIPCFLAGDTRSSEMPELTSMHTLLLREHNRLATELKSLNPRWDGERLYQEARKIVGAMVQIITYRDYLPLVLGPTAMRKYLPTYRSYNDSVDPRIANVFTNAFRYGHTLIQPFMFRLDNRYQPMEPNPRVPLSRVFFASWRVVLEGGIDPILRGLMATPAKLNRQNQIAVDEIRERLFEQVMRIGLDLPALNMQRSRDHGLPGYNAWRRFCGLPQPETVGQLGTVLRNLKLARKLMEQYGTPNNIDIWMGGVSEPLKRKGRVGPLLACIIGTQFRKLRDGDRFWWENEGVFSMQQRQALAQISLPRIICDNTGITTVSKNNIFMSNSYPRDFVNCSTLPALNLASWREAS
effect on MPO-mediated apoptosis (HOCl pathway) [4]: accelerates the HOCl pathway

B2: Mn SOD: Mn-containing superoxide dismutase from E. coli (protein, UniProt P00448 2-206, looked up)
Superoxide dismutase [Mn]: SYTLPSLPYAYDALEPHFDKQTMEIHHTKHHQTYVNNANAALESLPEFANLPVEELITKLDQLPADKKTVLRNNAGGHANHSLFWKGLKKGTTLQGDLKAAIERDFGSVDNFKAEFEKAAASRFGSGWAWLVLKGDKLAVVSTANQDSPLMGEAISGASGFPIMGLDVWEHAYYLKFQNRRPDYIKEFWNVVNWDEAAARFAAKK
effect of higher SOD concentrations on apoptosis [2]: once the maximum inhibition has been reached this is maintained
